Format in all cases: biochemical, mice
The test system of experiment [1] is IMM potential. In words: Rhodamine 123 (Rh123) uptake counterscreen.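 Note: isolated mitochondria respiring on glutamate plus malate in sucrose MOPS-Tris buffer at pH 7.4, Rh123 added with the organelles, compounds tested across a twofold dilution series.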 On the technique in general: A counterscreen serves to expose hits that act by an unwanted route or on another target.
Description: Assay buffer: 250 mM sucrose, 10 mM MOPS-Tris, 0.01 mM EGTA-Tris, 1.0 mM phosphoric acid-Tris, pH 7.4 • Solution 1. 5.0 mM glutamate and 2.5 mM malate in Assay Buffer. • Solution 2. 1% DMSO in Solution 1. • Solution 3. 0.8 μM FCCP (the stock 40 μM in DMSO) in Solution 1. • Solution 4. 0.5 mg/mL mitochondria and 0.8 μM Rh123 in Assay Buffer.
Protocol Summary: • 1. Freshly isolate mitochondria, prepare solutions according to the recipes in the Reagent Section. • 2. Dispense 100 μL of Solution 3 to Columns 1-2 and Solution 2 Columns 11-12 (positive and negative controls, respectively) of the 96-well black assay plate (Falcon 353376). • 3. Dispense 200 μL of Solution 1 to Row A Columns 3-10. • 4. Next, dispense 100 μL of Solution 2 to Rows B-H Columns 3-10. • 5. Add 4 μL of 10 mM test compounds in DMSO to Row A Columns 3-10, perform 1:2 serial dilutions Row A to H Columns 3-10. • 6. Finally, dispense 100 μL of Solution 4 in all wells. The reaction starts. • 7. Keep the plate at room temperature for 5 minutes and then read fluorescence (excitation 485 nm, emission 538 nm) on Fluoroskan Ascent FL, Thermo Scientific.
Concentration-Response Counterscreen Assay to Identify Compounds that Prevent Mitochondrial Swelling Via Interference with the IMM Potential (SAR Assay AID No. 743361)
Assay buffer: 250 mM sucrose, 10 mM MOPS-Tris, 0.01 mM EGTA-Tris, 1.0 mM phosphoric acid-Tris, pH 7.4 • Solution 1. 5.0 glutamate and 2.5 mM malate in Assay Buffer. • Solution 2. 1% DMSO in Solution 1. • Solution 3. 0.8 μM FCCP (the stock 40 μM in DMSO) in Solution 1. • Solution 4. 0.5 mg/mL mitochondria and 0.8 μM Rh123 in Assay Buffer.
Experiment [2] relates to mtPTP. Put plainly: Calcium retention capacity (CRC) assay on isolated mitochondria. The conditions noted are these: 12.5 μM compound.
Description: Assay buffer: 250 mM sucrose, 10 mM MOPS-Tris, 0.01 mM EGTA-Tris, 1.0 mM phosphoric acid-Tris, pH 7.4. • Solution 1. 10 mM glutamate and 5 mM malate in Assay buffer. • Solution 2. 1% DMSO in Solution 2. • Solution 3. 0.5 mg/mL mitochondria and 1.0 μM Calcium Green-5N in Assay Buffer. • Solution 4. 0.25 mM CaCl2).
Protocol Summary: • 1. Freshly isolate mitochondria, prepare solutions according to the recipes in the Reagent Section. • 2. Dispense 100 μL of Solution 2 to Columns 1-2 (negative control) of the 96-well black assay plate (Falcon 353376). • 3. Dispense 200 μL of Solution 1 to Row A Columns 3-12. • 4. Next, dispense 100 μL of Solution 2 to Rows B-H Columns 3-12. • 5. Add 4 μL of 5 mM test compounds in DMSO to Row A Columns 3-12, perform 1:2 serial dilutions Row A to H Columns 3-12. • 6. Finally, dispense 100 μL of Solution 3 in all wells. • 7. Experiment starts. Read Calcium Green-5N fluorescence (excitation 485 nm, emission 538 nm) and perform a train of 4 μL Solution 4 additions with Fluoroskan Ascent FL, Thermo Scientific.
For experiment [3], the system named is Mitochondrial Permeability Transition Pore. In words: Mitochondrial swelling absorbance assay.
Description: Mitochondrial Swelling (Hit Validation, Confirmatory Assay, Concentration-Response, AID No. 720722)
Assay buffer: 250 mM sucrose, 10 mM MOPS-Tris, 0.01 mM EGTA-Tris, 1.0 mM phosphoric acid-Tris, pH 7.4 • Solution 1. 5.0 mM glutamate and 2.5 mM malate in Assay buffer. • Solution 2. 80-120 μM CaCl2) depending on mitochondrial activity in Solution 1. Note: Concentration of Ca^2+ in the assay is dependent upon the activity of the isolated mitochondria which is determined via a calcium titration just before each screening batch. A Ca^2+ concentration is used that allows for the arrival at a 2:1 window at the 20 minute time period. • Solution 3. 1% DMSO in Solution 2. • Solution 4. 2.0 mM EGTA-Tris, pH 7.4 in Solution 3. • Solution 5. 0.5 mg/mL mitochondria in Assay Buffer.
Protocol Summary: • 1. Freshly isolate mitochondria, prepare solutions according to the recipes in the reagent section • 2. Dispense 100 μL of Solution 4 to Columns 1-2 and Solution 3 Columns 11-12 (positive and negative controls, respectively) of the 96-well clear assay plate (Falcon 353072) • 3. Dispense 200 μL of Solution 1 to Row A Columns 3-10. • 4. Next, dispense 100 μL of Solution 3 to Rows B-H Columns 3-10. • 5. Add 4 μL of 5 mM test compounds in DMSO to Row A Columns 3-10, perform 1:2 serial dilutions Row A to H Columns 3-10. • 6. Finally, dispense 100 μL of Solution 5 in all wells. The reaction starts. • 7. Keep the plate at room temperature for 20 minutes and then read absorbance at 540 nm on MultiSkan EX, Thermo Scientific.
Concentration-Response Assay to Identify Compounds that Inhibit Mitochondrial Swelling (SAR Assay AID No. 743359)
Assay buffer: 250 mM sucrose, 10 mM MOPS-Tris, 0.01 mM EGTA-Tris, 1.0 mM phosphoric acid, pH 7.4 • Solution 1. 5.0 mM glutamate and 2.5 mM malate in Assay Buffer. • Solution 2. 100-120 μM CaCl2) depending on mitochondrial activity in Solution 1. Note: Concentration of Ca^2+ in the assay is dependent upon the activity of the isolated mitochondria which is determined via a calcium titration just before each screening batch. A Ca^2+ concentration is used that allows for the arrival at a 2:1 window at the 20 minute time period. • Solution 3. 1% DMSO in Solution 2. • Solution 4. 2.0 mM EGTA-Tris, pH 7.4 in Solution 3. • Solution 5. 0.5 mg/mL mitochondria in Assay Buffer.
Protocol Summary: • 1. Freshly isolate mitochondria, prepare solutions according to the recipes in the Reagent Section. • 2. Dispense 100 μL of Solution 4 to Columns 1-2 and Solution 3 Columns 11-12 (positive and negative controls, respectively) of the 96-well clear assay plate (Falcon 353072). • 3. Dispense 200 μL of Solution 1 to Row A Columns 3-10. • 4. Next, dispense 100 μL of Solution 3 to Rows B-H Columns 3-10. • 5. Add 4 μL of 5 mM test compounds in DMSO to Row A Columns 3-10, perform 1:2 serial dilutions Row A to H Columns 3-10. • 6. Finally, dispense 100 μL of Solution 5 in all wells. The reaction starts. • 7. Keep the plate at room temperature for 20 minutes and then read absorbance at 540 nm on MultiSkan EX, Thermo Scientific.
Where [4] appears, read: Table 1, read-out: Rh123 uptake (EC50).
Where [5] appears, read: Table 2, average of >3 experiments ± SEM, read-out: Rh123 Assay EC50.
The mark [6] stands for this setting: Table 2, average of >3 experiments ± SEM.

Where two headings read alike, the source gives them in different places.

In general, EC50 refers to the concentration at which the effect is half-maximal.

As for `COc1ccc(Cl)cc1C(=O)Nc1ccc(CCN2CCCCC2)cc1`, the EC50 in experiment [1] (setting [4]) was > 100 µM; in experiment [3] (Table 1, average ± SEM) it was 2.68 ± 0.166 µM. Also, the “Calcium Retention Capacity (CRC/CRC0 at 12.5 μM)” value in experiment [2] (Table 1, average ± SEM) is reported as 1.51 ± 0.01.
As to `COc1ccc(Cl)cc1C(=O)Nc1ccc(CN2CCN(C(=O)OC(C)(C)C)CC2)cc1`, the EC50 in experiment [1] (setting [4]) was > 100 µM; in experiment [3] (Table 1, average ± SEM) it was 9.24 ± 0.86 µM. Moreover, the “Calcium Retention Capacity (CRC/CRC0 at 12.5 μM)” value in experiment [2] (Table 1, average ± SEM) is 1.33 ± 0.06.
For `COc1ccc(Cl)cc1C(=O)Nc1ccc(CN2CCOCC2)cc1` the same measures were > 100 µM, 8.12 ± 0.388 µM and 1.20 ± 0.00.
For `COc1ccc(Cl)cc1C(=O)Nc1ccc(CN2CCCCC2)cc1`, the EC50 in experiment [1] (setting [4]) is > 100 µM; in experiment [3] (Table 1, average ± SEM), 1.54 ± 0.101 µM. Moreover, in experiment [2] (Table 1, average ± SEM), the “Calcium Retention Capacity (CRC/CRC0 at 12.5 μM)” value turned out to be 1.80 ± 0.00.
As to `COc1ccc(Cl)cc1C(=O)Nc1cccc(CN2CCNCC2)c1`, the EC50 was > 100 µM in experiment [1] (setting [4]) and 3.27 ± 0.15 µM in experiment [3] (Table 1, average ± SEM). Besides, the “Calcium Retention Capacity (CRC/CRC0 at 12.5 μM)” value in experiment [2] (Table 1, average ± SEM) is 1.52 ± 0.06.
On to `O=C(Nc1ccc(CN2CCCCC2)cc1)c1cccc(OCc2ccccc2)c1`, for which the EC50 in experiment [1] (setting [4]) amounted to 51.2 µM; in experiment [3] (Table 1, average ± SEM) it was 0.885 ± 0.116 µM. In addition, in experiment [2] (Table 1, average ± SEM), the “Calcium Retention Capacity (CRC/CRC0 at 12.5 μM)” value was found to be 3.54 ± 0.28.
For `O=C(Nc1ccc(CN2CCCCC2)cc1)c1cccc(Cl)c1`, the EC50 in experiment [1] (setting [4]) was > 100 µM; in experiment [3] (Table 1, average ± SEM), 16 ± 1.58 µM. Moreover, the “Calcium Retention Capacity (CRC/CRC0 at 12.5 μM)” value in experiment [2] (Table 1, average ± SEM) is 1.16 ± 0.02.
Turning to `O=S(=O)(Nc1ccc(CCN2CCCCC2)cc1)c1cccc(Cl)c1`, the EC50 was > 100 µM in experiment [1] (setting [4]) and 38.7 ± 3.67 µM in experiment [3] (Table 1, average ± SEM). The “Calcium Retention Capacity (CRC/CRC0 at 12.5 μM)” value in experiment [2] (Table 1, average ± SEM) is recorded as 1.12 ± 0.02.
In the case of `CN1CCN(c2ccc(NS(=O)(=O)c3cccc(Cl)c3)cc2)CC1`, the 50% effective concentration (EC50) was > 100 µM in experiment [1] (setting [4]) and 37.5 ± 3.63 µM in experiment [3] (Table 1, average ± SEM). Moreover, in experiment [2] (Table 1, average ± SEM), the “Calcium Retention Capacity (CRC/CRC0 at 12.5 μM)” value is 1.05 ± 0.03.
As for `CN1CCN(Cc2ccc(NS(=O)(=O)c3cc(Cl)cc(Cl)c3)cc2)CC1`, the EC50 in experiment [1] (setting [4]) was > 100 µM; in experiment [3] (Table 1, average ± SEM), 29.2 ± 2.1 µM. Also, the “Calcium Retention Capacity (CRC/CRC0 at 12.5 μM)” value in experiment [2] (Table 1, average ± SEM) is on record as 1.10 ± 0.02.
For `O=S(=O)(Nc1ccc(CCN2CCCCC2)cc1)c1cc(Cl)cc(Cl)c1` the same measures were > 100 µM, 25.6 ± 1.8 µM and 1.17 ± 0.04.
The matching figures for `O=S(=O)(Nc1ccc(CCN2CCNCC2)cc1)c1cc(Cl)cc(Cl)c1`: > 100 µM, 21.4 ± 0.983 µM and 1.09 ± 0.05.
For `CN1CCN(c2ccc(NS(=O)(=O)c3cc(Cl)cc(Cl)c3)cc2)CC1` the same measures were > 100 µM, 21.7 ± 1.08 µM and 1.11 ± 0.03.
Take `O=S(=O)(Nc1ccc(CCN2CCCCC2)cc1)c1ccc(F)c(Cl)c1`: the EC50 was > 100 µM in experiment [1] (setting [4]) and 29.1 ± 2.92 µM in experiment [3] (Table 1, average ± SEM). Also, the “Calcium Retention Capacity (CRC/CRC0 at 12.5 μM)” value in experiment [2] (Table 1, average ± SEM) is given as 1.07 ± 0.03.
The matching figures for `COc1ccc(NC(=O)c2cc(-c3cccc(O)c3)on2)cc1Cl`: > 100 µM, 0.189 ± 0.028 µM and 3.26 ± 0.32.
Take `CC1(C)CCN(CCCC(=O)c2ccc(Br)cc2)CC1`: the concentration giving a half-maximal response (EC50) in experiment [1] (setting [4]) was > 100 µM; in experiment [3] (Table 1, average ± SEM), 18 ± 1.33 µM. In experiment [2] (Table 1, average ± SEM), the “Calcium Retention Capacity (CRC/CRC0 at 12.5 μM)” value is 1.10 ± 0.05.
For the compound `CC(C)C1CCN(CCCC(=O)c2ccc(Br)cc2)CC1`, the half-maximal effective concentration (EC50) in experiment [1] (setting [4]) is 64.8 ± 4.19 µM; in experiment [3] (Table 1, average ± SEM), 10 ± 7.78 µM. Further, in experiment [2] (Table 1, average ± SEM), the “Calcium Retention Capacity (CRC/CRC0 at 12.5 μM)” value amounted to 1.16 ± 0.05.
For `C[C@@H]1CCC[C@H](C)N1CCCC(=O)c1ccc(Br)cc1`, the EC50 in experiment [1] (setting [4]) was > 100 µM; in experiment [3] (Table 1, average ± SEM) it was 46 ± 1.36 µM. Besides, the “Calcium Retention Capacity (CRC/CRC0 at 12.5 μM)” value in experiment [2] (Table 1, average ± SEM) worked out at 1.01 ± 0.02.
With `O=C(Nc1ccc(CN2CCCCC2)cc1)c1cc(F)cc(OCc2ccccc2)c1` [Entry 1], the EC50 in experiment [1] (setting [5]) was found to be 58.6 ± 2.9 µM; in experiment [3] (setting [6]), 0.521 ± 0.046 µM. Moreover, the “Calcium Retention Capacity (CRC/CRC0 at 12.5 μM)” value in experiment [2] (setting [6]) is on record as 10.8 ± 0.6.
For the compound `O=C(Nc1ccc(CN2CCCCC2)cc1)c1ccc(F)c(OCc2ccccc2)c1` [Entry 2], the 50% effective concentration (EC50) in experiment [1] (setting [5]) was > 100 µM; in experiment [3] (setting [6]) it was 0.372 ± 0.028 µM. Moreover, the “Calcium Retention Capacity (CRC/CRC0 at 12.5 μM)” value in experiment [2] (setting [6]) was found to be 13.3 ± 1.0.
With `O=C(Nc1ccc(CN2CCCCC2)cc1)c1cc(OCc2ccccc2)ccc1Cl` [Entry 3], the EC50 in experiment [1] (setting [5]) was 75.7 ± 1.8 µM; in experiment [3] (setting [6]), 3.6 ± 0.17 µM. In experiment [2] (setting [6]), the “Calcium Retention Capacity (CRC/CRC0 at 12.5 μM)” value was found to be 2.26 ± 0.11.
The matching figures for `O=C(Nc1ccc(CN2CCOCC2)cc1)c1ccc(Cl)c(OCc2ccccc2)c1` [Entry 4]: > 100 µM, 0.403 ± 0.031 µM and 8.81 ± 0.39.
